Data: PMC7311426, “An amphipathic peptide with antibiotic activity against multidrug-resistant Gram-negative bacteria” (Nature Communications, 2020)
Converted amounts (≈) assume the structure as drawn.

Key:
Test in all cases: microbe, parasite or virus in culture
E. coli = system: E. coli
In short: (§1)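 MICs were scored by eye after 18-20 h static incubation at 37 °C, with bacteria at 5 × 10^5 CFU mL^−1 in MHB. Peptides were serially diluted 2-fold over 12 points, top 128 or 64 μg mL^−1. CAMHB (CLSI) and 1% agarose-MHB variants were also run, at least six replicates.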

K. pneumoniae = system: K. pneumoniae
In short: as §1

P. aeruginosa = system: P. aeruginosa
In short: as §1

## CN(C)c1cc(NC(=O)CNC(C)(C)C)c(O)c2c1C[C@H]1C[C@H]3[C@H](N(C)C)C(O)=C(C(N)=O)C(=O)[C@@]3(O)C(O)=C1C2=O [TIG]
E. coli; E. coli AUD172 parent strain not exposed to drug
  MIC, broth microdilution: 0.12 µg/mL (≈ 0.205 µM)
E. coli; E. coli AUD172 spontaneous mutant, AA139 selection 4X, plate 2, colony 2, drug-free passage 1
  MIC, broth microdilution: 0.12 µg/mL (≈ 0.205 µM)
E. coli; E. coli AUD172 spontaneous mutant, AA139 selection 4X, plate 2, colony 2, drug-free passage 5
  MIC, broth microdilution: 0.5 µg/mL (≈ 0.854 µM)
K. pneumoniae; K. pneumoniae 3010 parent strain not exposed to drug
  MIC, broth microdilution: 0.5 µg/mL (≈ 0.854 µM)
K. pneumoniae; K. pneumoniae 3010 spontaneous mutant, AA139 selection 4X, plate 1, colony 1, drug-free passage 1
  MIC, broth microdilution: 0.5, 0.5 µg/mL
K. pneumoniae; K. pneumoniae 3010 spontaneous mutant, AA139 selection 4X, plate 1, colony 1, drug-free passage 5
  MIC, broth microdilution: 0.5, 0.5 µg/mL
K. pneumoniae; K. pneumoniae 3010 spontaneous mutant, AA139 selection 8X, plate 1, colony 1, drug-free passage 1
  MIC, broth microdilution: 0.5, 0.5 µg/mL
K. pneumoniae; K. pneumoniae 3010 spontaneous mutant, AA139 selection 8X, plate 1, colony 1, drug-free passage 5
  MIC, broth microdilution: 0.5, 0.5 µg/mL
K. pneumoniae; K. pneumoniae ST258 parent strain not exposed to drug
  MIC, broth microdilution: 0.5 µg/mL (≈ 0.854 µM)
K. pneumoniae; K. pneumoniae ST258 spontaneous mutant, AA139 selection 4X, plate 1, colony 1, drug-free passage 1
  MIC, broth microdilution: 0.5, 0.5 µg/mL
K. pneumoniae; K. pneumoniae ST258 spontaneous mutant, AA139 selection 4X, plate 1, colony 1, drug-free passage 5
  MIC, broth microdilution: 0.5, 0.5 µg/mL
P. aeruginosa; P. aeruginosa ATCC 27853 parent strain not exposed to drug
  MIC, broth microdilution: 8 µg/mL (≈ 13.7 µM)
P. aeruginosa; P. aeruginosa ATCC 27853 spontaneous mutant, AA139 selection 4X, plate 1, colony 1, drug-free passage 1
  MIC, broth microdilution: 8, 8 µg/mL
P. aeruginosa; P. aeruginosa ATCC 27853 spontaneous mutant, AA139 selection 4X, plate 1, colony 1, drug-free passage 5
  MIC, broth microdilution: 8, 8 µg/mL
P. aeruginosa; P. aeruginosa ATCC 27853 spontaneous mutant, AA139 selection 4X, plate 1, colony 2, drug-free passage 1
  MIC, broth microdilution: 8, 8 µg/mL
P. aeruginosa; P. aeruginosa ATCC 27853 spontaneous mutant, AA139 selection 4X, plate 1, colony 2, drug-free passage 5
  MIC, broth microdilution: 8, 8 µg/mL
P. aeruginosa; P. aeruginosa ATCC 27853 spontaneous mutant, AA139 selection 4X, plate 1, colony 3, drug-free passage 1
  MIC, broth microdilution: 8, 8 µg/mL
P. aeruginosa; P. aeruginosa ATCC 27853 spontaneous mutant, AA139 selection 4X, plate 1, colony 3, drug-free passage 5
  MIC, broth microdilution: 8, 8 µg/mL
P. aeruginosa; P. aeruginosa ATCC 27853 spontaneous mutant, AA139 selection 4X, plate 1, colony 4, drug-free passage 1
  MIC, broth microdilution: 8, 8 µg/mL
P. aeruginosa; P. aeruginosa ATCC 27853 spontaneous mutant, AA139 selection 4X, plate 1, colony 4, drug-free passage 5
  MIC, broth microdilution: 8, 8 µg/mL
P. aeruginosa; P. aeruginosa ATCC 27853 spontaneous mutant, AA139 selection 4X, plate 1, colony 5, drug-free passage 1
  MIC, broth microdilution: 16, 16 µg/mL
P. aeruginosa; P. aeruginosa ATCC 27853 spontaneous mutant, AA139 selection 4X, plate 1, colony 5, drug-free passage 5
  MIC, broth microdilution: 16, 16 µg/mL
P. aeruginosa; P. aeruginosa ATCC 27853 spontaneous mutant, AA139 selection 4X, plate 1, colony 6, drug-free passage 1
  MIC, broth microdilution: 8, 8 µg/mL
P. aeruginosa; P. aeruginosa ATCC 27853 spontaneous mutant, AA139 selection 4X, plate 1, colony 6, drug-free passage 5
  MIC, broth microdilution: 8, 8 µg/mL
P. aeruginosa; P. aeruginosa ATCC 27853 spontaneous mutant, AA139 selection 4X, plate 2, colony 1, drug-free passage 1
  MIC, broth microdilution: 8, 8 µg/mL
P. aeruginosa; P. aeruginosa ATCC 27853 spontaneous mutant, AA139 selection 4X, plate 2, colony 1, drug-free passage 5
  MIC, broth microdilution: 8, 8 µg/mL
P. aeruginosa; P. aeruginosa ATCC 27853 spontaneous mutant, AA139 selection 4X, plate 2, colony 2, drug-free passage 1
  MIC, broth microdilution: 8, 8 µg/mL
P. aeruginosa; P. aeruginosa ATCC 27853 spontaneous mutant, AA139 selection 4X, plate 2, colony 2, drug-free passage 5
  MIC, broth microdilution: 8, 8 µg/mL
P. aeruginosa; P. aeruginosa ATCC 27853 spontaneous mutant, AA139 selection 4X, plate 2, colony 3, drug-free passage 1
  MIC, broth microdilution: 8, 8 µg/mL
P. aeruginosa; P. aeruginosa ATCC 27853 spontaneous mutant, AA139 selection 4X, plate 2, colony 3, drug-free passage 5
  MIC, broth microdilution: 8, 8 µg/mL
P. aeruginosa; P. aeruginosa ATCC 27853 spontaneous mutant, AA139 selection 4X, plate 2, colony 4, drug-free passage 1
  MIC, broth microdilution: 8, 8 µg/mL
P. aeruginosa; P. aeruginosa ATCC 27853 spontaneous mutant, AA139 selection 4X, plate 2, colony 4, drug-free passage 5
  MIC, broth microdilution: 8, 8 µg/mL
P. aeruginosa; P. aeruginosa ATCC 27853 spontaneous mutant, AA139 selection 8X, plate 1, colony 1, drug-free passage 1
  MIC, broth microdilution: 8, 8 µg/mL
P. aeruginosa; P. aeruginosa ATCC 27853 spontaneous mutant, AA139 selection 8X, plate 1, colony 1, drug-free passage 5
  MIC, broth microdilution: 8, 8 µg/mL
P. aeruginosa; P. aeruginosa ATCC 27853 spontaneous mutant, AA139 selection 8X, plate 1, colony 2, drug-free passage 1
  MIC, broth microdilution: 8, 8 µg/mL
P. aeruginosa; P. aeruginosa ATCC 27853 spontaneous mutant, AA139 selection 8X, plate 1, colony 2, drug-free passage 5
  MIC, broth microdilution: 8, 8 µg/mL
P. aeruginosa; P. aeruginosa ATCC 27853 spontaneous mutant, AA139 selection 8X, plate 1, colony 3, drug-free passage 1
  MIC, broth microdilution: 8, 8 µg/mL
P. aeruginosa; P. aeruginosa ATCC 27853 spontaneous mutant, AA139 selection 8X, plate 1, colony 3, drug-free passage 5
  MIC, broth microdilution: 8, 8 µg/mL
P. aeruginosa; P. aeruginosa ATCC 27853 spontaneous mutant, AA139 selection 8X, plate 1, colony 4, drug-free passage 1
  MIC, broth microdilution: 8, 8 µg/mL
P. aeruginosa; P. aeruginosa ATCC 27853 spontaneous mutant, AA139 selection 8X, plate 1, colony 4, drug-free passage 5
  MIC, broth microdilution: 8, 8 µg/mL
P. aeruginosa; P. aeruginosa ATCC 27853 spontaneous mutant, AA139 selection 8X, plate 1, colony 5, drug-free passage 1
  MIC, broth microdilution: 8, 8 µg/mL
P. aeruginosa; P. aeruginosa ATCC 27853 spontaneous mutant, AA139 selection 8X, plate 1, colony 5, drug-free passage 5
  MIC, broth microdilution: 8, 8 µg/mL
P. aeruginosa; P. aeruginosa UNT 138-1 parent strain not exposed to drug
  MIC, broth microdilution: 8 µg/mL (≈ 13.7 µM)
P. aeruginosa; P. aeruginosa UNT 138-1 spontaneous mutant, AA139 selection 4X, plate 1, colony 1, drug-free passage 1
  MIC, broth microdilution: 16, 16 µg/mL
P. aeruginosa; P. aeruginosa UNT 138-1 spontaneous mutant, AA139 selection 4X, plate 1, colony 1, drug-free passage 5
  MIC, broth microdilution: 16, 16 µg/mL
P. aeruginosa; P. aeruginosa UNT 138-1 spontaneous mutant, AA139 selection 4X, plate 1, colony 2, drug-free passage 1
  MIC, broth microdilution: 16, 16 µg/mL
P. aeruginosa; P. aeruginosa UNT 138-1 spontaneous mutant, AA139 selection 4X, plate 1, colony 2, drug-free passage 5
  MIC, broth microdilution: 16, 16 µg/mL
P. aeruginosa; P. aeruginosa UNT 138-1 spontaneous mutant, AA139 selection 4X, plate 1, colony 3, drug-free passage 1
  MIC, broth microdilution: 16, 16 µg/mL
P. aeruginosa; P. aeruginosa UNT 138-1 spontaneous mutant, AA139 selection 4X, plate 1, colony 3, drug-free passage 5
  MIC, broth microdilution: 16, 16 µg/mL
P. aeruginosa; P. aeruginosa UNT 138-1 spontaneous mutant, AA139 selection 4X, plate 1, colony 4, drug-free passage 1
  MIC, broth microdilution: 16, 16 µg/mL
P. aeruginosa; P. aeruginosa UNT 138-1 spontaneous mutant, AA139 selection 4X, plate 1, colony 4, drug-free passage 5
  MIC, broth microdilution: 16, 16 µg/mL
P. aeruginosa; P. aeruginosa UNT 138-1 spontaneous mutant, AA139 selection 4X, plate 1, colony 5, drug-free passage 1
  MIC, broth microdilution: 16, 16 µg/mL
P. aeruginosa; P. aeruginosa UNT 138-1 spontaneous mutant, AA139 selection 4X, plate 1, colony 5, drug-free passage 5
  MIC, broth microdilution: 16, 16 µg/mL
P. aeruginosa; P. aeruginosa UNT 138-1 spontaneous mutant, AA139 selection 4X, plate 1, colony 6, drug-free passage 1
  MIC, broth microdilution: 16, 16 µg/mL
P. aeruginosa; P. aeruginosa UNT 138-1 spontaneous mutant, AA139 selection 4X, plate 1, colony 6, drug-free passage 5
  MIC, broth microdilution: 16, 16 µg/mL
P. aeruginosa; P. aeruginosa UNT 138-1 spontaneous mutant, AA139 selection 4X, plate 1, colony 7, drug-free passage 1
  MIC, broth microdilution: 16, 16 µg/mL
P. aeruginosa; P. aeruginosa UNT 138-1 spontaneous mutant, AA139 selection 4X, plate 1, colony 7, drug-free passage 5
  MIC, broth microdilution: 16, 16 µg/mL
P. aeruginosa; P. aeruginosa UNT 138-1 spontaneous mutant, AA139 selection 4X, plate 2, colony 1, drug-free passage 1
  MIC, broth microdilution: 16, 16 µg/mL
P. aeruginosa; P. aeruginosa UNT 138-1 spontaneous mutant, AA139 selection 4X, plate 2, colony 1, drug-free passage 5
  MIC, broth microdilution: 16, 16 µg/mL
P. aeruginosa; P. aeruginosa UNT 138-1 spontaneous mutant, AA139 selection 4X, plate 2, colony 2, drug-free passage 1
  MIC, broth microdilution: 16, 16 µg/mL
P. aeruginosa; P. aeruginosa UNT 138-1 spontaneous mutant, AA139 selection 4X, plate 2, colony 2, drug-free passage 5
  MIC, broth microdilution: 16, 16 µg/mL
P. aeruginosa; P. aeruginosa UNT 138-1 spontaneous mutant, AA139 selection 4X, plate 2, colony 3, drug-free passage 1
  MIC, broth microdilution: 16, 16 µg/mL
P. aeruginosa; P. aeruginosa UNT 138-1 spontaneous mutant, AA139 selection 4X, plate 2, colony 3, drug-free passage 5
  MIC, broth microdilution: 16, 16 µg/mL
P. aeruginosa; P. aeruginosa UNT 138-1 spontaneous mutant, AA139 selection 4X, plate 2, colony 4, drug-free passage 1
  MIC, broth microdilution: 16, 16 µg/mL
P. aeruginosa; P. aeruginosa UNT 138-1 spontaneous mutant, AA139 selection 4X, plate 2, colony 4, drug-free passage 5
  MIC, broth microdilution: 16, 16 µg/mL
P. aeruginosa; P. aeruginosa UNT 138-1 spontaneous mutant, AA139 selection 4X, plate 2, colony 5, drug-free passage 1
  MIC, broth microdilution: 16, 16 µg/mL
P. aeruginosa; P. aeruginosa UNT 138-1 spontaneous mutant, AA139 selection 4X, plate 2, colony 5, drug-free passage 5
  MIC, broth microdilution: 16, 16 µg/mL
P. aeruginosa; P. aeruginosa UNT 138-1 spontaneous mutant, AA139 selection 4X, plate 2, colony 6, drug-free passage 1
  MIC, broth microdilution: 16, 16 µg/mL
P. aeruginosa; P. aeruginosa UNT 138-1 spontaneous mutant, AA139 selection 4X, plate 2, colony 6, drug-free passage 5
  MIC, broth microdilution: 16, 16 µg/mL
P. aeruginosa; P. aeruginosa UNT 138-1 spontaneous mutant, AA139 selection 4X, plate 2, colony 7, drug-free passage 1
  MIC, broth microdilution: 8 µg/mL (≈ 13.7 µM)
P. aeruginosa; P. aeruginosa UNT 138-1 spontaneous mutant, AA139 selection 4X, plate 2, colony 7, drug-free passage 5
  MIC, broth microdilution: 16 µg/mL (≈ 27.3 µM)
P. aeruginosa; P. aeruginosa UNT 138-1 spontaneous mutant, AA139 selection 8X, plate 1, colony 1, drug-free passage 1
  MIC, broth microdilution: 8 µg/mL (≈ 13.7 µM)
P. aeruginosa; P. aeruginosa UNT 138-1 spontaneous mutant, AA139 selection 8X, plate 1, colony 1, drug-free passage 5
  MIC, broth microdilution: 16 µg/mL (≈ 27.3 µM)
P. aeruginosa; P. aeruginosa UNT 138-1 spontaneous mutant, AA139 selection 8X, plate 1, colony 2, drug-free passage 1
  MIC, broth microdilution: 8 µg/mL (≈ 13.7 µM)
P. aeruginosa; P. aeruginosa UNT 138-1 spontaneous mutant, AA139 selection 8X, plate 1, colony 2, drug-free passage 5
  MIC, broth microdilution: 16 µg/mL (≈ 27.3 µM)
P. aeruginosa; P. aeruginosa UNT 138-1 spontaneous mutant, AA139 selection 8X, plate 1, colony 3, drug-free passage 1
  MIC, broth microdilution: 8 µg/mL (≈ 13.7 µM)
P. aeruginosa; P. aeruginosa UNT 138-1 spontaneous mutant, AA139 selection 8X, plate 1, colony 3, drug-free passage 5
  MIC, broth microdilution: 16 µg/mL (≈ 27.3 µM)
P. aeruginosa; P. aeruginosa UNT 138-1 spontaneous mutant, AA139 selection 8X, plate 1, colony 4, drug-free passage 1
  MIC, broth microdilution: 8 µg/mL (≈ 13.7 µM)
P. aeruginosa; P. aeruginosa UNT 138-1 spontaneous mutant, AA139 selection 8X, plate 1, colony 4, drug-free passage 5
  MIC, broth microdilution: 16 µg/mL (≈ 27.3 µM)
P. aeruginosa; P. aeruginosa UNT 138-1 spontaneous mutant, AA139 selection 8X, plate 1, colony 5, drug-free passage 1
  MIC, broth microdilution: 16, 16 µg/mL
P. aeruginosa; P. aeruginosa UNT 138-1 spontaneous mutant, AA139 selection 8X, plate 1, colony 5, drug-free passage 5
  MIC, broth microdilution: 16, 16 µg/mL
P. aeruginosa; P. aeruginosa UNT 138-1 spontaneous mutant, AA139 selection 8X, plate 2, colony 1, drug-free passage 1
  MIC, broth microdilution: 16, 16 µg/mL
P. aeruginosa; P. aeruginosa UNT 138-1 spontaneous mutant, AA139 selection 8X, plate 2, colony 1, drug-free passage 5
  MIC, broth microdilution: 16, 16 µg/mL
